Results from PubChem BioAssay AID298 (DTP/NCI, 2004).
Values joined by “and” are separate entries in the source; they are usually repeats but may differ in a detail not shown here. Identical values can stand only once. Inconclusive results are not listed.

Test system: MX-1 breast xenograft, intrarenal, nude mice, tumor weight
Experiment: NCI In Vivo Anticancer Drug Screen. Data for tumor model Human Mammary Carcinoma MX-1 Xenograft (intrarenal inoculation) in NU/NU BALB/C (nude) mice
Conditions: endpoint: mean tumor weight change, higher = larger tumour
Summary of the method: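 Antitumor activity is expressed as a T/C ratio. The treated group's tumor size or survival is compared against the vehicle-treated control group in mice bearing transplanted tumors.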

[1] = dose: 100.0 mg/kg/injection, schedule: Q04DX003 (ip), vehicle: saline with Tween-80
[2] = dose: 400.0 mg/kg/injection, schedule: Q04DX003 (ip), vehicle: saline with Tween-80
[3] = dose: 100.0 mg/kg/injection, schedule: Q04DX003 (ip), vehicle: saline

## CCS/C(SC)=C(/c1ccccc1)[P+](c1ccccc1)(c1ccccc1)c1ccccc1
dose: 9.38 mg/kg/injection, schedule: Q04DX003 (sc), vehicle: Klucel (hydroxypropylcellulose) (HPC)
  T/C: 92 % of control
dose: 18.75 mg/kg/injection, schedule: Q04DX003 (sc), vehicle: Klucel (hydroxypropylcellulose) (HPC)
  T/C: 111 % of control
dose: 37.5 mg/kg/injection, schedule: Q04DX003 (sc), vehicle: Klucel (hydroxypropylcellulose) (HPC)
  T/C: 75 % of control

## OC1OCC(COc2ccc(Cl)cc2)OC1O (stereo not given)
[1]
  T/C: 78 % of control
dose: 200.0 mg/kg/injection, schedule: Q04DX003 (ip), vehicle: saline with Tween-80
  T/C: 75 % of control
[2]
  T/C: 92 % of control

## N=C(N)c1ccc(Nc2ccc(-c3cc4ccc(C(=N)N)cc4[nH]3)cc2)cc1
dose: 3.75 mg/kg/injection, schedule: Q04DX003 (ip), vehicle: saline
  T/C: 84 % of control
dose: 7.5 mg/kg/injection, schedule: Q04DX003 (ip), vehicle: saline
  T/C: 69 % of control
dose: 15.0 mg/kg/injection, schedule: Q04DX003 (ip), vehicle: saline
  T/C: 62 % of control

## CNc1nc(NC)nc(NC)n1
dose: 12.5 mg/kg/injection, schedule: Q01DX010 (sc), vehicle: Klucel (hydroxypropylcellulose) (HPC)
  T/C: 156 % of control
dose: 25.0 mg/kg/injection, schedule: Q01DX010 (sc), vehicle: Klucel (hydroxypropylcellulose) (HPC)
  T/C: 152 % of control
dose: 50.0 mg/kg/injection, schedule: Q01DX010 (sc), vehicle: Klucel (hydroxypropylcellulose) (HPC)
  T/C: 122 % of control
dose: 100.0 mg/kg/injection, schedule: Q01DX010 (sc), vehicle: Klucel (hydroxypropylcellulose) (HPC)
  T/C: 83 % of control

## COC(=O)Nc1cn2cc(C(=O)c3cccs3)ccc2n1
dose: 300.0 mg/kg/injection, schedule: Q04DX003 (sc), vehicle: Klucel (hydroxypropylcellulose) (HPC)
  T/C: 70 % of control
dose: 600.0 mg/kg/injection, schedule: Q04DX003 (sc), vehicle: Klucel (hydroxypropylcellulose) (HPC)
  T/C: 74 % of control
dose: 1200.0 mg/kg/injection, schedule: Q04DX003 (sc), vehicle: Klucel (hydroxypropylcellulose) (HPC)
  T/C: 102 % of control
dose: 2400.0 mg/kg/injection, schedule: Q04DX003 (sc), vehicle: Klucel (hydroxypropylcellulose) (HPC)
  T/C: 96 % of control

## CCn1cnc2c(=S)nc[nH]c21
dose: 150.0 mg/kg/injection, schedule: Q04DX003 (sc), vehicle: saline
  T/C: 91 % of control
dose: 300.0 mg/kg/injection, schedule: Q04DX003 (sc), vehicle: saline
  T/C: 49 % of control

## CC[C@]1(O)C[C@H]2CN(CCc3c([nH]c4ccccc34)[C@@](C(=O)OC)(c3cc4c(cc3OC)N(C)[C@H]3[C@@](O)(C(=O)OC)[C@H](OC(C)=O)[C@]5(CC)C=CCN6CC[C@]43[C@@H]65)C2)C1
dose: 0.25 mg/kg/injection, schedule: Q01DX010 (sc), vehicle: saline
  T/C: 43 % of control
dose: 0.5 mg/kg/injection, schedule: Q01DX010 (sc), vehicle: saline
  T/C: 18 % of control

## C[C@]12CC[C@H](O)CC1=CC[C@@H]1[C@@H]2CC[C@]2(C)C(=O)CC[C@@H]12
dose: 300.0 mg/kg/injection, schedule: Q04DX003 (sc), vehicle: saline with Tween-80
  T/C: 77 % of control
dose: 600.0 mg/kg/injection, schedule: Q04DX003 (sc), vehicle: saline with Tween-80
  T/C: 76 % of control
dose: 1200.0 mg/kg/injection, schedule: Q04DX003 (sc), vehicle: saline with Tween-80
  T/C: 63 % of control
dose: 2400.0 mg/kg/injection, schedule: Q04DX003 (sc), vehicle: saline with Tween-80
  T/C: 68 % of control

## C#CCN(Cc1ccc2nc(N)[nH]c(=O)c2c1)c1ccc(C(=O)NC(CCC(=O)O)C(=O)O)cc1 (stereo not given)
dose: 75.0 mg/kg/injection, schedule: Q04DX003 (ip), vehicle: water
  T/C: 111 % of control
dose: 150.0 mg/kg/injection, schedule: Q04DX003 (ip), vehicle: water
  T/C: 74 % of control
dose: 300.0 mg/kg/injection, schedule: Q04DX003 (ip), vehicle: water
  T/C: 72 % of control

## CN=S(=O)(OCCCCCOS(=O)(=NC)c1ccc(C)cc1)c1ccc(C)cc1 (stereo not given)
dose: 75.0 mg/kg/injection, schedule: Q04DX003 (sc), vehicle: saline with Tween-80
  T/C: 86 % of control
dose: 150.0 mg/kg/injection, schedule: Q04DX003 (sc), vehicle: saline with Tween-80
  T/C: 61 % of control

## C=C1COC(O)(C2OCOC(C3CC(=O)NC(=O)C3)C2O)C1C (stereo not given)
dose: 37.5 micrograms/kg/injection, schedule: Q04DX003 (ip), vehicle: water
  T/C: 117 % of control

## [N-]=[N+]=CC(=O)CCC(NC(=O)OCc1ccccc1)C(=O)OCc1ccccc1 (stereo not given)
dose: 300.0 mg/kg/injection, schedule: Q04DX003 (ip), vehicle: Klucel (hydroxypropylcellulose) (HPC)
  T/C: 6 % of control and 23 % of control and 27 % of control
dose: 450.0 mg/kg/injection, schedule: Q04DX003 (ip), vehicle: Klucel (hydroxypropylcellulose) (HPC)
  T/C: 20 % of control
dose: 600.0 mg/kg/injection, schedule: Q04DX003 (ip), vehicle: Klucel (hydroxypropylcellulose) (HPC)
  T/C: 6 % of control and 16 % of control
dose: 900.0 mg/kg/injection, schedule: Q04DX003 (ip), vehicle: Klucel (hydroxypropylcellulose) (HPC)
  T/C: 1 % of control
dose: 1200.0 mg/kg/injection, schedule: Q04DX003 (ip), vehicle: Klucel (hydroxypropylcellulose) (HPC)
  T/C: 22 % of control

## Cc1c(O)/c(=C\O)c2nc3c(=O)ccc(C(=O)NCCN(C)C)c3[nH]c2c1=O
dose: 50.0 mg/kg/injection, schedule: Q04DX003 (ip), vehicle: other
  T/C: 77 % of control
dose: 100.0 mg/kg/injection, schedule: Q04DX003 (ip), vehicle: other
  T/C: 100 % of control
dose: 200.0 mg/kg/injection, schedule: Q04DX003 (ip), vehicle: other
  T/C: 44 % of control

## O=S(=O)(O)O.[NH-]C1CCCCC1[NH-].[Pt+2] (stereo not given)
dose: 0.63 mg/kg/injection, schedule: Q01DX010 (sc), vehicle: dextrose
  T/C: 81 % of control
dose: 1.25 mg/kg/injection, schedule: Q01DX010 (sc), vehicle: dextrose
  T/C: 41 % of control
dose: 2.5 mg/kg/injection, schedule: Q01DX010 (sc), vehicle: dextrose
  T/C: 6 % of control

## C=C1C(O)C2(O)OCC34C(CC5C(C)=CC(=O)C(O)C5(C)C23)OC(=O)C(OC(=O)C/C=C(\C)CCCCC)C14 (stereo not given)
dose: 1.5 mg/kg/injection, schedule: Q04DX003 (ip), vehicle: saline + alcohol
  T/C: 69 % of control
dose: 3.0 mg/kg/injection, schedule: Q04DX003 (ip), vehicle: saline + alcohol
  T/C: 87 % of control
dose: 6.0 mg/kg/injection, schedule: Q04DX003 (ip), vehicle: saline + alcohol
  T/C: 47 % of control
dose: 12.0 mg/kg/injection, schedule: Q04DX003 (ip), vehicle: saline + alcohol
  T/C: 43 % of control

## CN1C2CCC1C(Br)C(=O)C2 (stereo not given)
[3]
  T/C: 100 % of control
dose: 200.0 mg/kg/injection, schedule: Q04DX003 (ip), vehicle: saline
  T/C: 66 % of control

## C=CC(=O)N1CN(C(=O)C=C)CN(C(=O)C=C)C1
dose: 6.25 mg/kg/injection, schedule: Q01DX010 (sc), vehicle: saline with Tween-80
  T/C: 116 % of control
dose: 12.5 mg/kg/injection, schedule: Q01DX010 (sc), vehicle: saline with Tween-80
  T/C: 179 % of control

## Cc1cc2cc3cc(C)c(N)cc3nc2cc1N
dose: 200.0 mg/kg/injection, schedule: Q04DX003 (sc), vehicle: saline with Tween-80
  T/C: 161 % of control
dose: 400.0 mg/kg/injection, schedule: Q04DX003 (sc), vehicle: saline with Tween-80
  T/C: 106 % of control
dose: 800.0 mg/kg/injection, schedule: Q04DX003 (sc), vehicle: saline with Tween-80
  T/C: 107 % of control
dose: 1600.0 mg/kg/injection, schedule: Q04DX003 (sc), vehicle: saline with Tween-80
  T/C: 107 % of control

## CC(=O)c1c(O)c(C)c(O)c2c1OC1=CC(=O)C(C(C)=O)C(=O)C12C (stereo not given)
dose: 200.0 mg/kg/injection, schedule: Q01DX010 (sc), vehicle: sodium bicarbonate
  T/C: 96 % of control
dose: 400.0 mg/kg/injection, schedule: Q01DX010 (sc), vehicle: sodium bicarbonate
  T/C: 72 % of control

## O=NNc1cccnc1
dose: 25.0 mg/kg/injection, schedule: Q04DX003 (ip), vehicle: water
  T/C: 103 % of control and 113 % of control
dose: 50.0 mg/kg/injection, schedule: Q04DX003 (ip), vehicle: water
  T/C: 108 % of control

## Cc1nc(N)nc(N)c1N1CCN(c2ccc(C(=O)NC(C(=O)O)C(=O)O)cc2)CC1
dose: 7.5 mg/kg/injection, schedule: Q04DX003 (ip), vehicle: Klucel + Tween-80
  T/C: 63 % of control
dose: 15.0 mg/kg/injection, schedule: Q04DX003 (ip), vehicle: Klucel + Tween-80
  T/C: 76 % of control
dose: 30.0 mg/kg/injection, schedule: Q04DX003 (ip), vehicle: Klucel + Tween-80
  T/C: 76 % of control
dose: 60.0 mg/kg/injection, schedule: Q04DX003 (ip), vehicle: Klucel + Tween-80
  T/C: 82 % of control

## NC(=O)c1[nH]cnc1O
dose: 50.0 mg/kg/injection, schedule: Q04DX003 (ip), vehicle: saline with Tween-80
  T/C: 96 % of control
[1]
  T/C: 112 % of control and 119 % of control
[2]
  T/C: 81 % of control
dose: 800.0 mg/kg/injection, schedule: Q04DX003 (ip), vehicle: saline with Tween-80
  T/C: 69 % of control

## NCCSC(C[N+](=O)[O-])c1ccccc1Cl (stereo not given)
dose: 25.0 mg/kg/injection, schedule: Q04DX003 (ip), vehicle: saline
  T/C: 86 % of control
dose: 50.0 mg/kg/injection, schedule: Q04DX003 (ip), vehicle: saline
  T/C: 86 % of control
[3]
  T/C: 85 % of control

## [Cl][Hg][Cl]
dose: 5.0 mg/kg/injection, schedule: Q04DX003 (ip), vehicle: saline
  T/C: 67 % of control
